Source: patent US20130303377A1, “USE OF SINGLE AMINO ACIDS AT LOW CONCENTRATIONS FOR INFLUENCING THE LIFE PROCESSES OF CROPS” (GLOBACHEM, priority 2010, published 2013)

Assays:
[1] = test system: mature apple trees of the variety Jonagold (mutant King); assay: Improvement of the coloring with apple, Example 1 (glutamine sprayed before picking); format: in vivo; details: for kg 1st picking: colored fruits; for Fruit weight: average over the total harvest
Experimental: This experiment was performed on mature apple trees of the variety Jonagold (mutant King). The sprayings were performed with an atomizer at 300 liter of water/ha. The spray liquid used contained in the first test 300 ppm wt of glutamine and in the second test with a multiple treatment each time 150 ppm wt glutamine. The spray liquid further contained surfactants and a UV filter.
apples of the trees in the test field were harvested in 3 times. Glutamine was used as active substance, in a first test 2 weeks before the expected first picking date, and in the second test first 2 weeks and then again 1 week before the expected harvest date. The dosages used are shown below. At harvest, the total yield, the kilos colored fruits which could be harvested in the first picking and the average fruit weight over the total harvest (in grams per apple fruit) were determined. The results are shown in Table 1, and compared with a control without treatment.

Jonagold = assay: Improvement of the coloring with apple, Example 2; format: in vivo
Experimental: In an experiment similar to Example 1, glutamine was used 2 times on Jonagold, the first time 14 days before the picking and then a few days before the picking. The dosage of the treatment was this time 2 times 15 g/ha (each time with a concentration of 50 ppm wt in an atomisation of each time 300 liter of water per hectare). The % first picking was determined and is shown in Table 2, in comparison with a control test without treatment.

[2] = test system: mature apple trees of the variety Jonagold, Jonagored mutant; assay: Increase of both the yield and the coloring with apple, Example 3; format: in vivo
Experimental: This experiment was performed on mature apple trees of the variety Jonagold, Jonagored mutant. Unlike the two previous trials, the focus here is primarily on increasing the yield. To achieve this, the treatments have to be started much earlier in the season. The dose is hereby lower than in the two previous applications because the goal is here fruit set and growth inhibition, instead of coloring. One could suffice with two treatments, at the start of the growing season, but several applications over the entire growing season gives a more certain result. The applications in this test were started around the end of flowering and were repeated every 7 to 14 days, depending on the weather conditions. There were in total 7 treatments, more precisely on April 24, May 7, May 14, May 20, June 9, June 16 and June 24. The sprayings were performed with an atomiser.
Glutamine, each time at a concentration of 50 ppm wt in 300 liter water/ha, and thus a dose of 15 g/ha, was applied both separately and in combination with S-abscisic acid (ABA). In the combination test, ABA was administered at the first 2 sprayings of the season, and always at a concentration of 3.3 ppm in 300 l water/ha spraying liquid, which corresponds to a dosage of 1.0 g/ha of ABA. At the end of the season, the extension of the shoots was measured and the number of fruits per tree determined. Shortly after the end of the sprayings, on June 25, the average fruit diameter was also determined.

Jonagored = assay: Improvement of the coloring with apple, Example 4; format: in vivo; details: glutamine 2.5 g/ha, 4 days before the pick
Source text: In this experiment, glutamine was applied 4 days before the pick on a plot of Jonagored, and in a concentration of 8.3 ppm wt in 300 l/ha, which is equivalent to a dose of 2.5 g/ha of glutamine. In table 4 below the % of first picking is shown.

wheat seedlings = assay: Growth inhibition with wheat; format: in vivo; details: for Growth increase (cm): one treatment; for Growth increase (cm) / % wrt control: after 10 days; for % wrt control: growth increase
Experimental: This experiment was performed in four repetitions on wheat seedlings. Per repetition six seedlings were sown in a jar and monitored. When the seedlings were about 15 cm high, they were treated once with the following treatments, and after 10 days the growth increase was measured. The dose is given in g/ha whereby the conversion from the concentration was done with a use of 300 l/ha.

plants [3] = assay: Strength of the response to one single amino acid as a function of dosage; format: in vivo; details: compared to the intermediate range of 5-15 g/ha
Source text: The location of the peaks of the pattern, i.e. at which concentrations the strongest effects could be recorded, and the location of the valley between two peaks, i.e. the range wherein the response was again a little less, appeared however to depend on the choice of the amino acid and of the life process which one wishes to influence.

barley seedlings = assay: Growth inhibition with barley; format: in vivo; details: 250 g/ha, after 8 days
Experimental: This experiment was performed in four repetitions on barley seedlings. Per repetition, six seedlings were sown in a jar and monitored. When the seedlings were about 15 cm high, they were treated once with the following treatments, and after 8 days the growth increase was measured. The dose is given in g/ha whereby the conversion from the concentration was done at a use of 300 I/ha.

plants [4] = details: 500 ppm of glutamic acid; EP 1124419; cited from earlier work
plants [5] = details: only glutamic acid; WO 00/25582; cited from earlier work
[6] = glutamine 2 × 45 g/ha, 2 weeks and 1 week before expected harvest date
[7] = glutamine 90 g/ha once, 2 weeks before expected first picking

In the case of `NC(=O)CC[C@H](N)C(=O)O` [Glutamine, glutamine], the “Difference of first picking versus control” value ([1]; dual treatment (2 × 45 g/ha)) is reported as 3 kg, the “Difference of first picking versus control (% of total harvest)” value ([1]; dual treatment (2 × 45 g/ha)) is reported as 10% and the “1st picking in % of the total harvest” value [1, 6] is reported as 46%. For the same molecule, the “kg (total harvest)” value [1, 6] was 39 kg, the “kg 1st picking” value [1, 6] was 18 kg and the “Fruit weight” value ([1]; glutamine 2 × 45 g/ha) was 257 g. The “1st picking in % of the total harvest” value [1, 7] was 41%, the “kg (total harvest)” value [1, 7] was 39 kg and the “kg 1st picking” value [1, 7] was 16 kg. For the same molecule, the “Fruit weight” value ([1]; glutamine 90 g/ha once) was 248 g, the “Increase of first picking versus control” value ([1]; single treatment (90 g/ha)) was 1 kg and the “Increase of first picking versus control (% of total harvest)” value ([1]; single treatment (90 g/ha)) was 5%. For the same molecule, the “Increase in the first picking, absolute percentage with respect to weight of total harvest” value (Jonagold; double treatment of glutamine, versus control) was “around 10%”, the “Increase of the first-picking portion of the harvest” value (Jonagold; extrapolated at a Jonagold yield of 60 tons/ha) was “at least 6 tons/ha” and the “% 1st picking” value (Jonagold; glutamine 2 × 15 g/ha, 14 days and a few days before the picking) was 40%. For the same molecule, the “Average Shoot length (cm)” value ([2]; end of season, glutamine 15 g/ha, 7 treatments) was 25.6 cm, the “Fruit diameter (mm) on June 25” value ([2]; glutamine 15 g/ha, 7 treatments) was 43.7 mm and the “Increase of fruits per tree versus control” value ([2]; glutamine alone, 15 g/ha, 7 treatments) was 14 fruits per tree. The Increased yield ([2]; glutamine alone, extrapolated at 1714 trees/ha and five apples per kilo) was ~5000 kg/ha, the Number of fruits ([2]; per tree, glutamine 15 g/ha, 7 treatments from end of flowering) was 127 and the “% 1st picking” value (Jonagored) was 55.8%.

With `N[C@@H](Cc1c[nH]cn1)C(=O)O` [Histidine, histidine] the “Growth increase (cm)” value (wheat seedlings; 2 g/ha) was 10.0 cm, the “Growth increase (cm)” value (wheat seedlings; 100 g/ha) was 10.2 cm and the “Strength of the growth inhibitory response” value (wheat seedlings; further experiments with only histidine, about 10 g/ha) was “less than in the tests with the lower (2 g/ha) and higher (100 g/ha) dosages”. For the same molecule, the “% wrt control” value (wheat seedlings; 2 g/ha) was 92%, the “% wrt control” value (wheat seedlings; 100 g/ha) was 94% and the “Strength of the response as a function of dosage” value (plants [3]) was “higher response in the range of 0.5-5 g/ha and in a range of 15-250 g/ha”.

With `CC(C)(C)C(O)(CCc1ccc(Cl)cc1)Cn1cncn1` (stereo not drawn) [Tebuconazole, tebuconazole] the “Growth increase (cm)” value (barley seedlings; one treatment) was 3.2 cm and the “% wrt control” value (barley seedlings; growth increase) was 45%.

With `CCOC(=O)C1CC(=O)C(=C(O)C2CC2)C(=O)C1` (stereo not drawn) [Trinexapac-ethyl, trinexapac-ethyl, reference compound] the “Growth increase (cm)” value (wheat seedlings; 250 g/ha) was 7.8 cm and the “% wrt control” value (wheat seedlings; 250 g/ha) was 72%.

In the case of `N[C@@H](CCC(=O)O)C(=O)O` [glutamic acid], the “Effect on productivity of plants” value (plants [4]) is listed as “only a small effect” and the “Yield of plants versus control test” value (plants [5]) is listed as “did not yield any significant improvement”.
